Molecules are shown by their SMILES.

Inhibition data for ten compounds are collected here from patent US6858638B2, “Substituted indazoles, compositions containing them, method of production and use” (Aventis Pharma S.A., priority 2002, dated 2005).

Assay type in all cases: biochemical
One test has as its target T1, human FAK (Homo sapiens, UniProt Q05397).
T1 construct: The complete cDNA of human FAK; made in house; host or cells: baculovirus expression system (vector pFastBac HTc)
Kind of test: FAK autophosphorylation inhibition, time resolved fluorescence (HTRF) assay. As to conditions: 10 μM (values without asterisk); read-out: FAK % inhib at 10 μM. The essentials:
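Autophosphorylation was detected by europium-cryptate anti-pTyr and XL665 anti-His energy transfer, percent inhibition from the 665/620 ratio relative to no-compound wells. Enzyme: His-FAK full length, 6.6 µg/ml, incubated 1 h at 37 °C, pH 7.2, 15 µM ATP.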
Background: In TR-FRET formats the signal depends on donor and acceptor labels being close together.

The target in another test is T2, human KDR enzyme (Homo sapiens, UniProt P35968).
T2 construct: The cytoplasmic domain of the human KDR enzyme; GST; made in house; host or cells: SF21 insect cells (baculovirus)
The test can be described thus: KDR substrate (PLCγ) phosphorylation, scintillation assay. Particulars: 10 μM; read-out: KDR % inhib at 10 μM. In outline: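 Values are percent inhibition relative to the compound-free control, read by scintillation counting of 33P incorporation after EDTA stop. Baculovirus/SF21-expressed GST-KDR cytoplasmic domain (100 ng) acted for 1 h at 37 °C in pH 7.2 MOPS kinase buffer. The substrate was GST-PLCγ SH2-SH3 (2 μg), added with γ33P-ATP and 2 μM unlabeled ATP.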

In another test the target is T3, Aurora2 kinase (Homo sapiens, UniProt O14965).
T3 construct: A complete recombinant Aurora2 enzyme; His tag (N); made in house; host or cells: E. coli
T3 sequence (O14965 1-403): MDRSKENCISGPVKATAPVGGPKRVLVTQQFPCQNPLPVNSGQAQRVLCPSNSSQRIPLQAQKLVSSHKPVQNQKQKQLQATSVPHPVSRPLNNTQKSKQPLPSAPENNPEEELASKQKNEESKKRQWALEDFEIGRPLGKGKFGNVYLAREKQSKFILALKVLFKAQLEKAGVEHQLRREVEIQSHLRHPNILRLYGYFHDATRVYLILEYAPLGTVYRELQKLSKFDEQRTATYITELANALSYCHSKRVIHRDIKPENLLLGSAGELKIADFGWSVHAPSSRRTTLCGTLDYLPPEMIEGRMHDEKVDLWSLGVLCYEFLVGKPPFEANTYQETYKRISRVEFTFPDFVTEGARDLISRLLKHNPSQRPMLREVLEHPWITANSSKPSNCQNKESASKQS
Kind of test: Aurora2 kinase radioactivity scintillation assay using nickel chelate (NuMA substrate). As to conditions: 10 μM; read-out: Aurora2 % inhib at 10 μM. The essentials: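 Read-out is 33P incorporation into His-NuMA (Q1687-H2101, 0.5 μM) captured on nickel chelate, after 30 min at 37 °C with 0.02 μM His-Aurora2 and 1 μM ATP. Expressed as percentage inhibition of uncompounded control activity, background subtracted.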

The target of test [1] is T4, human IGF1R cytoplasmic domain (Homo sapiens, UniProt P08069).
T4 construct: The human IGF1R cytoplasmic domain was cloned; made in house; host or cells: SF21 insect cells (baculovirus)
Kind of test: IGF1R autophosphorylation inhibition, time resolved fluorescence (HTRF) assay. As to conditions: 10 μM; read-out: IGF1R % inhib at 10 μM. In outline:
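GST-tagged human IGF1R cytoplasmic domain from SF21 cells incubated with compound in 50 mM Hepes pH 7.5, 5 mM MnCl2, 50 mM NaCl, […] ATP. Autophosphorylation detected by HTRF (Eu-K anti-phosphotyrosine, XL665 anti-GST) after EDTA/KF stop; percentage inhibition versus no-compound control.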

T2 sequence (P35968 786-1356 limits assumed): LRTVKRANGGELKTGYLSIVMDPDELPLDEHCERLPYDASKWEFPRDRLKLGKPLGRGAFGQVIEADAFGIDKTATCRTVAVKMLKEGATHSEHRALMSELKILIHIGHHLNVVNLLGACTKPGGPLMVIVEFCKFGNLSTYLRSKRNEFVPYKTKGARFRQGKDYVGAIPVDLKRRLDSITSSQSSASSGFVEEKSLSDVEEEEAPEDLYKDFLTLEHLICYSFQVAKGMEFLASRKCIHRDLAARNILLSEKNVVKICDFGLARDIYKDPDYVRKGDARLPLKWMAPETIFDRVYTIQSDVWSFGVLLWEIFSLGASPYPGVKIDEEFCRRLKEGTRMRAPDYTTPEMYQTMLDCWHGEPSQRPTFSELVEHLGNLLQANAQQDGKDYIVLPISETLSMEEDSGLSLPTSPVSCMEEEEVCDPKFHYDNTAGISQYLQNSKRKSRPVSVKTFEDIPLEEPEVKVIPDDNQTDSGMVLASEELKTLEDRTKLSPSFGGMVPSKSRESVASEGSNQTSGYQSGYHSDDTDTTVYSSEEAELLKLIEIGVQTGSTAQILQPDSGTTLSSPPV
T1 sequence (Q05397 whole entry): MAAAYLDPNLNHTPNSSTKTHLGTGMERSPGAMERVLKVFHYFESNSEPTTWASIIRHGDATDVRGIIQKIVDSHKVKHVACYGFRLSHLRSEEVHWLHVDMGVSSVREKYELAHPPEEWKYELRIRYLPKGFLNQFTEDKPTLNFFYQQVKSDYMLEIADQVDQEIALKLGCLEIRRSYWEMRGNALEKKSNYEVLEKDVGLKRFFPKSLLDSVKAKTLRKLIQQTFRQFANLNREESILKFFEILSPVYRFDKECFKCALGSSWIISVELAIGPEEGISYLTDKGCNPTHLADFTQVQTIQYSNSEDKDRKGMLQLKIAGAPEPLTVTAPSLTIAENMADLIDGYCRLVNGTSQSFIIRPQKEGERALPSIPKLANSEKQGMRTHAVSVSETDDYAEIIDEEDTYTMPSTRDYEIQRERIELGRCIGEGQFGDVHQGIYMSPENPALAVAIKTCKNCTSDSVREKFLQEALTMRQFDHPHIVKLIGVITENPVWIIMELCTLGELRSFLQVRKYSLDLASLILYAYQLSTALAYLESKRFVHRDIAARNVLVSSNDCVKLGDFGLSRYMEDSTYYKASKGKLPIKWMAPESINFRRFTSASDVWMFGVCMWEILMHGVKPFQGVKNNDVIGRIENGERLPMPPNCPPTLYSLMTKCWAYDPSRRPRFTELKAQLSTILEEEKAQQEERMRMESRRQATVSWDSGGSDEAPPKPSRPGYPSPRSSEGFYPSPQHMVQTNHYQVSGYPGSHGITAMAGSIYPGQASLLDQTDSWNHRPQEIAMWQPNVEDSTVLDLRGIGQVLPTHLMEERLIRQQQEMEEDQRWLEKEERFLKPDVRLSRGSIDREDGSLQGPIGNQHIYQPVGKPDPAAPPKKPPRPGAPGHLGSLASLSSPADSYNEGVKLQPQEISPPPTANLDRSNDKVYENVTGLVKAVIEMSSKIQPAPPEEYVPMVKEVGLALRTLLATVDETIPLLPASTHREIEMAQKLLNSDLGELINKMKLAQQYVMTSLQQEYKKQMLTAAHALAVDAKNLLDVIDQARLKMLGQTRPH
T4 sequence (P08069 960-1367 limits assumed): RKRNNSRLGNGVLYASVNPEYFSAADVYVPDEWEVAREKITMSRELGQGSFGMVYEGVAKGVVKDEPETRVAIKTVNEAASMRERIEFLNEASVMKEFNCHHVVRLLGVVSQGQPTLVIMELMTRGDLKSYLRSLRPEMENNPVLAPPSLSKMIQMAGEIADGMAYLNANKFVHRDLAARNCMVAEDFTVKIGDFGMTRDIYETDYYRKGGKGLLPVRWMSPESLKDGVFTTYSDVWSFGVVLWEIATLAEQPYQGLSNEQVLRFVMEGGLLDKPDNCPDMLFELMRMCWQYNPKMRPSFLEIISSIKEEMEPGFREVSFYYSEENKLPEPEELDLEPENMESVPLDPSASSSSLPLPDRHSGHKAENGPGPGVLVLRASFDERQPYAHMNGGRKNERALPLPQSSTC

In the case of `COc1ccc(-c2n[nH]c3ccc(NS(=O)(=O)c4ccccc4S(C)(=O)=O)cc23)c(OC)c1OC` [Example 214, 2-Methanesulfonyl-N-[3-(2,3,4-trimethoxyphenyl)-1H-indazol-5-yl]-benzenesulfonamide], the inhibition at 10 µM at human FAK is 60%; on human KDR enzyme it was 56%; at Aurora2 kinase, 67%; in test [1] it was 21%.

In the case of `O=S(=O)(Nc1ccc2[nH]nc(-c3ccccc3)c2c1)c1ccccc1OC(F)(F)F` [Example 142, N-(3-Phenyl-1H-indazol-5-yl)-2-trifluoromethoxy-benzenesulfonamide], the inhibition at 10 µM was found to be 40% on human FAK, 85% at human KDR enzyme, 100% at Aurora2 kinase and 74% in test [1].

With `CCSc1ccc(-c2n[nH]c3ccc(NS(=O)(=O)c4ccccc4S(C)(=O)=O)cc23)cc1` [Example 213, N-[3-(4-Ethylsulfanylphenyl)-1H-indazol-5-yl]-2-methanesulfonyl-benzenesulfonamide], the inhibition at 10 µM came to 80% on human FAK, 68% on human KDR enzyme, 89% on Aurora2 kinase and 77% in test [1].

On to `Cc1ccc(-c2n[nH]c3ccc(NS(=O)(=O)c4ccccc4S(C)(=O)=O)cc23)cc1` [Example 164, 2-Methanesulfonyl-N-(3-p-tolyl-1H-indazol-5-yl)-benzenesulfonamide], for which the inhibition at 10 µM at human FAK was 90%; at human KDR enzyme it was 71%; on Aurora2 kinase, 91%; in test [1], 66%.

Take `CN(C)c1cccc2c(S(=O)(=O)Nc3cccc(-c4n[nH]c5ccc(NS(=O)(=O)c6ccccc6S(C)(=O)=O)cc45)c3)cccc12` [Example 166, N-{3-[5-(2-Methanesulfonyl-benzenesulfonylamino)-1H-indazol-3-yl]phenyl}-5-dimethylaminonaphthalene-1-sulfonamide]: the inhibition at 10 µM at human FAK came to 53%; at human KDR enzyme, 33%; at Aurora2 kinase, 61%; in test [1], 20%.

Take `CS(=O)(=O)c1ccccc1S(=O)(=O)Nc1ccc2[nH]nc(-c3ccc4c(c3)OCO4)c2c1` [Example 196, N-[3-(Benzo[1,3]dioxol-5-yl)-1H-indazol-5-yl]-2-methanesulfonyl-benzenesulfonamide]: the inhibition at 10 µM stood at 94% on human FAK, 73% on human KDR enzyme, 94% on Aurora2 kinase and 76% in test [1].

In the case of `CS(=O)(=O)c1ccccc1S(=O)(=O)Nc1ccc2[nH]nc(-c3cccnc3)c2c1` [Example 59, 2-Methylsulfonyl-N-(3-pyridin-3-yl-1H-indazol-5-yl)benzenesulfonamide], the inhibition at 10 µM came to 95% at human FAK, 40% on human KDR enzyme, 100% on Aurora2 kinase and 88% in test [1].

Take `CS(=O)(=O)c1ccccc1S(=O)(=O)Nc1ccc2[nH]nc(-c3cccc([N+](=O)[O-])c3)c2c1` [Example 162, 2-Methanesulfonyl-N-[3-(3-nitrophenyl)-1H-indazol-5-yl]-benzenesulfonamide]: the inhibition at 10 µM was 97% on human FAK, 57% on human KDR enzyme, 91% at Aurora2 kinase and 82% in test [1].

Take `CCOc1ccccc1-c1n[nH]c2ccc(NS(=O)(=O)c3ccccc3S(C)(=O)=O)cc12` [Example 189, N-[3-(2-Ethoxyphenyl)-1H-indazol-5-yl]-2-methanesulfonyl-benzenesulfonamide]: the inhibition at 10 µM stood at 70% at human FAK, 20% at human KDR enzyme, 62% on Aurora2 kinase and 31% in test [1].

Consider `CS(=O)(=O)c1ccccc1S(=O)(=O)Nc1ccc2[nH]nc(-c3ccc(C#N)cc3)c2c1` [Example 216, N-[3-(4-Cyanophenyl)-1H-indazol-5-yl]-2-methanesulfonyl-benzenesulfonamide], for which the inhibition at 10 µM worked out at 96% on human FAK, 32% on human KDR enzyme, 91% on Aurora2 kinase and 86% in test [1].
